Assay results from patent publication US7604982B2, “High-throughput screening method for intergrin antagonist and new peptide screened therefrom” (Proteogen Inc., priority 2003, dated 2009).
Residues, ends and D or L forms follow the SMILES beside them.

Columns and labels:
[1] = system: human umverical vein endothelial cell (HUVEC); assay: HUVEC migration assay (Boyden chamber, bFGF chemoattractant); format: cell-based; settings: bFGF-induced, 4 hours at 37° C., FIG. 9
Procedure: HUVE cell was cultured in M199 medium containing 10% fetal calf serum and 3 ng/ml bFGF. This cell was cultured in the control medium (M199 containing 0.1% BSA) for 16 hours to be used in migration assay, and then 3×10^4 cells were added to upper chamber of porous membrane coated with gelatin (40 μM) and inserted in Boyden chamber. Samples were treated at the same time in a concentration-dependent manner. Chemoattractant, bFGF, was added in the bottom chamber to induce HUVE cell to migrate into lower chamber. The chamber was incubated for 4 hours at 37° C. and then the membrane was removed. After fixation, cell was stained with crystal violet and cells migrating across the membrane were counted with a microscope.

[2] = biological target: T1, integrin αvβ3-vitronectin interaction (Homo sapiens, UniProt P05106+P06756); assay: Competitive inhibition of integrin αvβ3-vitronectin interaction on integrin microarray (ProteoChip); format: binding; settings: for inhibition of integrin αvβ3-vitronectin interaction (relative fluorescence intensity): vitronectin 100 ng/ml labeled with Cy-3, colour scale white highest, blue lowest; for IC50: half-maximal inhibition concentration relative to control without peptides, ND means no activity was detected
T1 construct: purchased Chemicon International, Inc. (CA, USA)
Description: ProteoChip™ (Proteogen, Inc., Seoul, South Korea) was used as a protein chip and integrins were spotted on the ProteoChip™ (Proteogen, Inc., Seoul, South Korea) with the microarrayer (CM-1000; Proteogen, Inc., Seoul, South Korea) to fabricate integrin receptor microarray (See Lee, Y. S. et al.: ProteoChip: a highly sensitive protein microarray proposed by a novel method of protein immobilization for application of protein-protein interaction studies, Proteomics 2003; 3: 2289-2304). Integrin α11bβ3 was purified to homogeneity by GRGDSPK-Sepharose column chromatography from the platelet (See Kang I. C. and Kim D. S., Analysis of potent glycoprotein IIb-IIIa antagonist from natural sources. J Biochem Mol Biol 1998; 31: 515-518), and Integrin αvβ3 was commercially obtained from Chemicon International, Inc. (CA, USA).
Integrins (40 μg/mL) diluted with a phosphate-buffered saline (PBS) solution containing 10 mM β-octylthioglucopyranoside, 1.0 mM CaCl2, 11.0 mM MgCl2, and 30% glycerol were spotted and incubated at 37° C. for 3 hours, and then the remaining integrins after binding were washed with 0.5% PBST (PBS containing 0.5% Tween-20). The prepared integrin microarray was stored at 4° C. until before use. This integrin microarray (integrin-binding protein chip) was used for high-throughput screening of integrin receptor antagonist (See FIG. 1).
Mixtures of ligand protein (vitronectin 100 ng/ml) labeled with fluorescence (Cy-3) and known integrin antagonists such as disintegrins (echistatin 250 μg/ml, flavoridin 250 μg/ml, kistrin 250 μg/ml, and salmosin 2.6 ng/ml), a monoclonal antibody (mAb) against integrin 11.0 mg/ml, and various concentrations of synthetic RGD peptides (echistatin, flavoridin, kistrin: Sigma-Aldrich, USA; Salmosin: isolated and purified from recombinant E. Coli; monoclonal antibody against integrin: Chemicon International, Inc., USA; synthetic ROD peptides: synthesized in the Korea Research Institute of Bioscience and Biotechnology, South Korea) were dropped on the integrin receptor of the integrin αvβ3-binding protein chip prepared in Example 1 by using micropipette or microarrayer (CM-1000; Proteogen, Inc., Seoul, South Korea) and then were reacted in a oven of 37° C. and over 75% humidity for 4-12 hours. After reaction, those were washed for about 10 minutes with 0.5% PBST containing 3% BSA. Competitive inhibitory abilities of antagonists were measured by analyzing the degree of ligand binding as relative fluorescence intensity with a fluorescence scanner.
Antagonists used in FIG. 4 are already known as antagonistic material of integrin αvβ3-vitronectin. This is also a result analyzing whether mixing antagonists and vitronectin labeled with fluorescence inhibit or not the interaction between integrin αvβ3 and vitronectin. Control are the group having only vitronectin labeled with fluorescence without antagonists and the other groups are the results performed with antagonists and peptides including the amino acid sequence of RGE. The fluorescence intensity in FIG. 4 is expressed as rainbow colors like the explanation of FIG. 3. […] However, in case of groups having antagonists, antagonists inhibited the interaction between integrin αvβ3 and vitronectin, that is, integrin αvβ3 didn't bind to vitronectin, which made the color of fluorescence blue, the lowest color.
Mixtures of ligand protein (Fibrinogen 100 ng/ml and vitronectin 100 ng/ml) labeled with fluorescence (Cy-3) and 114 peptide pools from peptide library were dropped on the integrin receptor of integrin αvβ3-binding protein chip prepared in Example 1 by using micropipette or microarrayer (CM-1000; Proteogen, Inc., Seoul, South Korea) and then were reacted in oven of 37° C. and over 75% humidity for 4-12 hours. After reaction, those were washed for about 10 minutes with 0.5% PBST containing 3% BSA. […]

[3] = system: angiogenesis in chick chorioallantoic membrane; assay: Inhibition assay of angiogenesis in a chick chorioallantoic membrane; format: in vivo; settings: in the presence of bFGF, FIG. 10
Procedure: FIG. 10 is the result of analyzing effects of antagonistic peptides of integrin αvβ3 on angiogenesis in a chick chorioallantoic membrane. In vivo angiogenesis inhibition test was performed as one of biological characterization researches of the antagonistic peptides. A, positive control, is the result of the group treated with only bFGF without peptide; B, negative control, is the result of the group having only cells without bFGF; C is the result of the group treated with GRGDSP peptide in the presence of bFGF; D is the result of the group treated with HGDVHK peptide in the presence of bFGF; E is the result of the group treated with HSDVHK peptide in the presence of bFGF; and F is the result of the group treated with HHDVHK peptide in the presence of bFGF.
Fertilized eggs was purchased from Pulmuone Corp. (South Korea), Thermanox coverslips for sample loading was purchased from Nunc Company (USA), and 10% Intralipose (fat emulsion) for observation and syringes were purchased from Green Cross Company (South Korea).
On day 1 (0-day embryo): Fertilized egg was incubated in a incubator of 37-38° C. and over 90% humidity. The temperature and humidity were often checked to make sure the above conditions.
On day 3 (2-day embryo): The peaked end of fertilized egg was cracked with a knife. […] The pore was sealed with transparent tape to block infection and dryness of the fertilized egg. The egg was incubated again with the direction of pore toward the bottom.
On day 4 (3-day embryo): The window which diameter is 2-3 cm was made in the direction of air sac of fertilized egg (in the opposite direction of the above syringe pore) and the eggs confirmed as fertilized egg were sealed with broad transparent tape and incubated again. For reference, round window was made as follows. A round shape of scratch was made on the eggshell with a sharp knife and eggshell then was taken away with a pincette.
On day 5 (4.5-day embryo): CAM is usually created at this time and the diameter is about 2-5 mm. […]

human malignant melanoma = settings: cited from earlier work
[4] = system: Lewis lung carcinomas cells; assay: Growth inhibition assay of subcutaneous solid tumor; format: in vivo, C57BL/6 mice; settings: 100 mg/kg mouse, subcutaneous injection once daily, FIGS. 11-13
Procedure: Lewis lung carcinomas cells (1×10^6) were injected subcutaneously into dorsal midline of C57BL/6 mice. When tumors were 100-200 mm^3 in volume, the mice were randomized into three groups. Two groups received HGDVHK or HSDVHK (100 mg/kg mouse), respectively, in PBS via subcutaneous injection at a site distant from the tumor once daily. […] The sizes of the tumors in all groups were measured at the same time everyday. The experiments were terminated when the control mice began to die.

[5] = system: blood endothelial alpha(5) and alpha(v)-integrin; settings: endothelial cell migration; cited from earlier work

Row | Molecule | inhibition of HUVEC migration [1] | inhibition of integrin αvβ3-vitronectin interaction (relative fluorescence intensity) [2] | inhibitory effect on CAM angiogenesis [3] | IC50 [2] [nM] | also measured
1 | HHDVHK [HHDVHK-NH2] | had little effect | didn't reveal any inhibitory activity | had little effect | – | –
2 | CC(C)C[C@H](NC(=O)[C@H](CC(C)C)NC(=O)[C@H](Cc1c[nH]cn1)NC(=O)[C@@H](N)Cc1c[nH]cn1)C(=O)N[C@@H](Cc1c[nH]cn1)C(=O)N[C@@H](CCCCN)C(N)=O [HHLLHK-NH2] (H-HHLLHK-NH2; N-terminus assumed) | – | – | – | 0.00434 | –
3 | CC(C)[C@H]1C(=O)N[C@@H](CCCN=C(N)N)C(=O)NCC(=O)N[C@@H](CC(=O)O)C(=O)N[C@H](Cc2ccccc2)C(=O)N1C [EMD121974] | – | – | – | – | angiogenesis inhibition and cancer growth suppression in animal test (human malignant melanoma): activity inhibiting angiogenesis and thus suppressing cancer growth
4 | CC(C)C[C@H](NC(=O)[C@H](CC(=O)O)NC(=O)CNC(=O)[C@@H](N)Cc1c[nH]cn1)C(=O)N[C@@H](Cc1c[nH]cn1)C(=O)N[C@@H](CCCCN)C(N)=O [HGDLHK-NH2] (H-HGDLHK-NH2; N-terminus assumed) | – | – | – | 0.0436 | –
5 | CC(C)C[C@H](NC(=O)[C@H](Cc1c[nH]cn1)NC(=O)[C@@H](N)Cc1c[nH]cn1)C(=O)N[C@H](C(=O)N[C@@H](Cc1c[nH]cn1)C(=O)N[C@@H](CCCCN)C(N)=O)C(C)C [HHLVHK-NH2] (H-HHLVHK-NH2; N-terminus assumed) | – | – | – | 0.407 | –
6 | CC(C)[C@H](NC(=O)[C@H](CC(=O)O)NC(=O)[C@H](CO)NC(=O)[C@@H](N)Cc1c[nH]cn1)C(=O)N[C@@H](Cc1c[nH]cn1)C(=O)N[C@@H](CCCCN)C(N)=O [HSDVHK-NH2] (H-HSDVHK-NH2; N-terminus assumed) | significantly inhibited | stronger inhibitory activity in integrin αvβ3-specific inhibitory test than GRGDSP | showed different inhibitory effects | 0.00241 | growth of solid tumor [4]: largely suppressed
7 | CC(C)C[C@H](NC(=O)[C@H](CO)NC(=O)[C@@H](N)Cc1c[nH]cn1)C(=O)N[C@H](C(=O)N[C@@H](Cc1c[nH]cn1)C(=O)N[C@@H](CCCCN)C(N)=O)C(C)C [HSLVHK-NH2] (H-HSLVHK-NH2; N-terminus assumed) | – | – | – | 0.064 | –
8 | CC(C)C[C@H](NC(=O)CNC(=O)[C@@H](N)Cc1c[nH]cn1)C(=O)N[C@H](C(=O)N[C@@H](Cc1c[nH]cn1)C(=O)N[C@@H](CCCCN)C(N)=O)C(C)C [HGLVHK-NH2] (H-HGLVHK-NH2; N-terminus assumed) | – | – | – | 0.00353 | –
9 | CC(C)[C@H](NC(=O)[C@H](CC(=O)O)NC(=O)CNC(=O)[C@@H](N)Cc1c[nH]cn1)C(=O)N[C@@H](Cc1c[nH]cn1)C(=O)N[C@@H](CCCCN)C(N)=O [HGDVHK-NH2] (H-HGDVHK-NH2; N-terminus assumed) | significantly inhibited | stronger inhibitory activity in integrin αvβ3-specific inhibitory test than GRGDSP | showed different inhibitory effects | 0.0647 | –
10 | recombinant human endostatin: recombinant human endostatin interacting with endothelial alpha(5) and alpha(v)-integrin (protein, UniProt P39060 1572-1754, looked up, Endostatin) Endostatin: HSHRDFQPVLHLVALNSPLSGGMRGIRGADFQCFQQARAVGLAGTFRAFLSSRLQDLYSIVRRADRAAVPIVNLKDELLFPSWEALFSGSEGPLKPGARIFSFDGKDVLRHPTWPQKSVWHGSDPNGRRLTESYCETWRTEAPSATGQASSLLGGRLLGQSAASCHHAYIVLCIENSFMTASK | – | – | – | – | inhibition of integrin-dependent endothelial function [5]: inhibit integrin-dependent endothelial function such as endothelial cell migration
